Laboratory results as given in patent US20050065140A1, “Serotonine reuptake inhibitor” (priority 2001, published 2005).

Target: T1, serotonin 1A receptors ([^3H]8-OH-DPAT binding, hippocampus membrane preparation) (Rattus norvegicus, UniProt P19327)
T1 construct: 146 μl of the hippocampus membrane preparation (80 μg/tube in terms of protein); from tissue; host or cells: rat hippocampus membrane preparation
T1 sequence (P19327 1-422): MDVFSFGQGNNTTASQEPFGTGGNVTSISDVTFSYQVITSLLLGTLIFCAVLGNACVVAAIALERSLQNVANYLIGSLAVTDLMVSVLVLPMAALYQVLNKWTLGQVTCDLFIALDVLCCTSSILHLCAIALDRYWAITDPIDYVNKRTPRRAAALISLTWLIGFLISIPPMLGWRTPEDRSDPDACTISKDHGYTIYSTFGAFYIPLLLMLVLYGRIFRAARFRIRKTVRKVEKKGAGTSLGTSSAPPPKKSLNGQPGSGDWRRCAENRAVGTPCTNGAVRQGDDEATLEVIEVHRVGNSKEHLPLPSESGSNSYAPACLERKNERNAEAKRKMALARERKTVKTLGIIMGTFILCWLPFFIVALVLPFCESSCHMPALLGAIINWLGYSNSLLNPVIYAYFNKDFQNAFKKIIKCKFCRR
Assay: [^3H]8-OH-DPAT binding test (Test Example 2)
Conditions: [^3H]8-OH-DPAT 2 nM, test concentration not given
Protocol: [^3H]8-OH-DPAT Binding Test
The test was carried out according to the method^2 of Hall M. D. et al. After about one week of pre-breeding, a male rat was decapitated and the brain was immediately removed. The hippocampus was dissected from the brain on ice, and 50 mM Tris-HCl (pH=7.4) was added to the hippocampus in an amount of 40 times the wet weight of the hippocampus, followed by homogenization (3 min, 1 stroke/min) in an ice bath by the use of a Teflon-glass homogenizer. Then, the homogenate was centrifuged (4° C.) at 40,000×g for 10 minutes. The resulting precipitate was dispersed in an ice-cooled buffer solution (50 mM Tris-HCl (pH=7.4)) by the use of Hiscotron™, followed by centrifugation (4° C.) at 40,000×g for 10 minutes. Moreover, the resulting precipitate was re-suspended and the washing procedure was repeated once. The precipitate thus obtained was dispersed in an ice-cooled buffer solution (50 mM Tris-HCl (pH=7.4)) by the use of Hiscotron™, and the resulting dispersion was incubated at 37° C. for 1 hour and then centrifuged (4° C.) at 40,000×g for 10 minutes. Furthermore, the resulting precipitate was re-suspended and the washing procedure was repeated once. The membrane preparation thus obtained was suspended in the same buffer solution as described above, and then subjected to cryopreservation at −80° C.
Measurement was carried out by using a liquid for reaction (total volume: 200 μl) obtained by adding 50 μl of [^3H]8-OH-DPAT (final concentration: 2 nM), 4 μl of a solution of a test drug and 146 μl of the hippocampus membrane preparation (80 μg/tube in terms of protein) to a buffer solution containing 50 mM Tris-HCl (pH=7.4) and 4 mM CaCl2. After the liquid for reaction was allowed to react at room temperature for 30 minutes, it was immediately filtered by suction at a low pressure through glass fiber filter. The glass fiber filter was washed twice with 250 μl of a buffer solution and then added to a glass vial containing 4 ml of ACS-II (Amersham), and the radioactivity bound to receptors and remaining on the filter was measured with a liquid scintillation counter. Non-specific binding of [^3H]8-OH-DPAT was defined as the amount of [^3H]8-OH-DPAT bound in the presence of 1 μM 8-OH-DPAT.
Rate of binding inhibition was calculated by the following equation:
Rate of binding inhibition (%)=100−100×{[amount of [^3H]8-OH-DPAT bound in the presence of test substance]−[amount of [^3H]8-OH-DPAT bound in the presence of 1 μM 8-OH-DPAT]/[amount of [^3H]8-OH-DPAT bound in the absence of test substance]−[amount of [^3H]8-OH-DPAT bound in the presence of 1 μM 8-OH-DPAT]}

Row | SMILES | Rate of inhibition of [^3H]8-OH-DPAT binding (%)
1 | COc1ccc(Br)c(CC2CCN(CCC3CCN(CCO)CC3)CC2)c1.Cl.Cl [Example 6, 2-(4-(2-(4-(2-Bromo-5-methoxybenzyl)-1-piperidinyl)ethyl)-1-piperidinyl)ethanol Dihydrochloride] | 71
2 | CCN[C@H]1CC[C@H](CCN2CCC(Cc3cc(OC)ccc3Br)CC2)CC1.Cl.Cl [Example 38, trans-N-(4-(2-(4-(2-bromo-5-methoxybenzyl)-piperidin-1-yl)ethyl)cyclohexyl)-N-ethylamine Dihydrochloride] | 96
3 | CO[C@H]1CC[C@H](CCN2CCC(Cc3cc(OC(C)C)ccc3Br)CC2)CC1.Cl [Example 44, trans-4-(2-Bromo-5-isopropoxybenzyl)-1-(2-(4-methoxycyclohexyl)ethyl)piperidine Hydrochloride] | 92
4 | CCN([C@H]1CC[C@H](CCCN2CCC(Cc3cc(OC(C)C)ccc3Br)CC2)CC1)S(C)(=O)=O.Cl [Example 46, trans-N-(4-(3-(4-(2-bromo-5-isopropoxy-benzyl)piperidin-1-yl)propyl)cyclohexyl)-N-ethylmethanesulfonamide Hydrochloride] | 65
5 | COc1ccc(Br)c(CC2CCN(CC[C@H]3CC[C@H](NS(=O)(=O)N(C)C)CC3)CC2)c1.Cl [Example 47, trans-N′-(4-(2-(4-(2-bromo-5-methoxybenzyl)-piperidin-1-yl)ethyl)cyclohexyl)-N,N-dimethylsulfamide hydrochloride] | 95
6 | COc1ccc(Br)c(CC2CCN(CC[C@H]3CC[C@H](NC(=O)C(F)(F)F)CC3)CC2)c1.Cl [Example 48, trans-N-(4-(2-(4-(2-bromo-5-methoxybenzyl)-piperidin-1-yl)ethyl)cyclohexyl)-2,2,2-trifluoro-acetamide Hydrochloride] | 90
7 | CCN(CC)[C@H]1CC[C@@H](CCCN2CCC(Cc3cc(OC)ccc3Br)CC2)CC1.Cl.Cl [Example 54, cis-N-(4-(3-(4-(2-bromo-5-methoxybenzyl)-piperidin-1-yl)propyl)cyclohexyl)-N,N-diethylamine Dihydrochloride] | 99
8 | CCN(CCOC)[C@H]1CC[C@H](CCN2CCC(Cc3cc(OC)ccc3Br)CC2)CC1.Cl.Cl [Example 58, trans-N-(4-(2-(4-(2-bromo-5-methoxybenzyl)-piperidin-1-yl)ethyl)cyclohexyl)-N-ethyl-N-(2-methoxyethyl)amine Dihydrochloride] | 92
9 | COc1ccc(Br)c(CC2CCN(CC[C@H]3CC[C@@H](CCO)CC3)CC2)c1.Cl [Example 64, cis-2-(4-(2-(4-(2-Bromo-5-methoxybenzyl)-piperidin-1-yl)ethyl)cyclohexyl)ethanol Hydrochloride] | 96
10 | CC(C)Oc1ccc(Br)c(CC2CCN(CC3CCc4ccccc4N3)CC2)c1.Cl.Cl (stereo not shown) [Example 65, 2-((4-(2-Bromo-5-isopropoxybenzyl)piperidin-1-yl)methyl)-1,2,3,4-tetrahydroquinoline Dihydrochloride] | 60
11 | Cl.Cl.Clc1ccc(Br)c(CC2CCN(CC3CCc4ccccc4N3)CC2)c1 (stereo not shown) [Example 67, 2-((4-(2-Bromo-5-chlorobenzyl)piperidin-1-yl)methyl)-1,2,3,4-tetrahydroquinoline Dihydrochloride] | 73
12 | COc1ccc(Br)c(CC2CCN(CC3CCc4ccccc4N3)CC2)c1.Cl.Cl (stereo not shown) [Example 69, 2-((4-(2-Bromo-5-methoxybenzyl)piperidin-1-yl)methyl)-1,2,3,4-tetrahydroquinoline Dihydrochloride] | 96
13 | COc1ccc(Br)c(CC2CCN(CC3CNc4ccccc4C3)CC2)c1.Cl.Cl (stereo not shown) [Example 70, 3-((4-(2-Bromo-5-methoxybenzyl)piperidin-1-yl)methyl)-1,2,3,4-tetrahydroquinoline Dihydrochloride] | 86
